# Data reported in patent US8691816B2, “Pyrrole inhibitors of S-nitrosoglutathione reductase as therapeutic agents” (N30 Pharmaceuticals, Inc., priority 2008, dated 2014).
# Like-named read-outs stand apart in the source and are kept apart here.
# Columns and labels:
# [1] = test system: mouse model of ovalbumin (OVA)-induced asthma; assay: Experimental asthma model: eosinophil infiltrate in bronchioalveolar lavage fluid (BALF); type: in vivo
# Description: (§1) A mouse model of ovalbumin (OVA)-induced asthma was used to screen GSNOR inhibitors for efficacy against methacholine (MCh)-induced bronchoconstriction/airway hyper-reactivity. This is a widely used and well characterized model that presents with an acute, allergic asthma phenotype with similarities to human asthma. Efficacy of GSNOR inhibitors were assessed using a prophylactic protocol in which GSNOR inhibitors were administered prior to challenge with MCh. Bronchoconstriction in response to challenge with increasing doses of MCh was assessed using whole body plethysmography (Penh; Buxco). The amount of eosinophil infiltrate into the bronchioalveolar lavage fluid (BALF) was also determined as a measure of lung inflammation. The effect of GSNOR inhibitors were compared to vehicles and to Combivent (inhaled; IH) as the positive control.
# (§2) OVA (500 μg/ml) in PBS was mixed with equal volumes of 10% (w/v) aluminum potassium sulfate in distilled water and incubated for 60 min. at room temperature after adjustment to pH 6.5 using 10 N NaOH. After centrifugation at 750×g for 5 min, the OVA/alum pellet was resuspended to the original volume in distilled water. Mice received an intraperitoneal (IP) injection of 100 μg OVA (0.2 mL of 500 μg/mL in normal saline) complexed with alum on day 0. Mice were anesthetized by IP injection of a 0.2-mL mixture of ketamine and xylazine (0.44 and 6.3 mg/mL, respectively) in normal saline and were placed on a board in the supine position. Two hundred fifty micrograms (100 μl of a 2.5 mg/ml) of OVA (on day 8) and 125 μg (50 μl of 2.5 mg/ml) OVA (on days 15, 18, and 21) were placed on the back of the tongue of each animal.
# After measurement of airway hyper-reactivity, the mice were exsanguination by cardiac puncture, and then BALF was collected from either both lungs or from the right lung after tying off the left lung at the mainstem bronchus. Total BALF cells were counted from a 0.05 mL aliquot, and the remaining fluid is centrifuged at 200×g for 10 min at 4° C. Cell pellets were resuspended in saline containing 10% BSA with smears made on glass slides. Eosinophils were stained for 5 min. with 0.05% aqueous eosin and 5% acetone in distilled water, rinsed with distilled water, and counterstained with 0.07% methylene blue.
# (§3) GSNOR inhibitors were reconstituted in phosphate buffered saline (PBS), pH 7.4, at concentrations ranging from 0.00005 to 3 mg/mL. GSNOR inhibitors were administered to mice (10 mL/kg) as a single dose either intravenously (IV) or orally via gavage. Dosing was performed from 30 min. to 24 h prior to MCh challenge. Effect of GSNOR inhibitors were compared to PBS vehicle dosed in the same manner.
# Area under the curve values for Penh across baseline, saline, and increasing doses of MCh challenge were calculated using GraphPad Prism 5.0 (San Diego, Calif.) and expressed as a percent of the respective (IV or orally administered) vehicle control. Statistical differences among treatment groups and the respective vehicle control group within each study were calculated using one-way ANOVA, Dunnetts (JMP 8.0, SAS Institute, Cary, N.C.).
# [2] = test system: mouse model of ovalbumin (OVA)-induced asthma; assay: Experimental asthma model: methacholine (MCh)-induced bronchoconstriction/airway hyper-reactivity (Penh) in ovalbumin (OVA)-induced asthma; type: in vivo; conditions: for response vs control in vivo at 10 mg/kg: single IV dose 10 mg/kg; for response vs control in vivo at 0.1 mg/kg: single IV dose 0.1 mg/kg; for response vs control in vivo at 1 mg/kg: single IV dose 1 mg/kg; for response vs control in vivo at 30 mg/kg: single oral dose 30 mg/kg; for efficacy against experimental asthma (attenuation of MCh induced bronchoconstriction and pulmonary inflammation): administered intravenously (IV) or orally; for efficacy against experimental asthma (attenuation of MCh induced bronchoconstriction): administered intravenously (IV)
# Description: as §1, §2
# In vivo airway responsiveness to methacholine was measured 24 h after the last OVA challenge in conscious, freely moving, spontaneously breathing mice with whole body plethysmography using a Buxco chamber (Wilmington, N.C.). Mice were challenged with aerosolized saline or increasing doses of methacholine (5, 20 and 50 mg/mL) generated by an ultrasonic nebulizer for 2 min. The degree of bronchoconstriction was expressed as enhanced pause (Penh), a calculated dimensionless value, which correlates with the measurement of airway resistance, impedance, and intrapleural pressure in the same mouse. Penh readings were taken and averaged for 4 min. after each nebulization challenge. Penh was calculated as follows: Penh=[(Te/Tr−1)×(PEF/PIF)], where Te is expiration time, Tr is relaxation time, PEF is peak expiratory flow, and PIF is peak inspiratory flow×0.67 coefficient. The time for the box pressure to change from a maximum to a user-defined percentage of the maximum represents the relaxation time. The Tr measurement begins at the maximum box pressure and ends at 40%.
# as §3
# Combivent was used as the positive control in all studies. Combivent (Boehringer Ingelheim) was administered to the lung using the inhaler device supplied with the product, but adapted for administration to mice, using a pipet tip. Combivent was administered 48 h, 24 h, and 1 h prior to MCh challenge. Each puff (or dose) of Combivent provided a dose of 18 μg ipatropium bromide (IpBr) and 103 μg albuterol sulfate or approximately 0.9 mg/kg IpBr and 5 mg/kg albuterol.
# Area under the curve values for Penh across baseline, saline, and increasing doses of MCh challenge were calculated using GraphPad Prism 5.0 (San Diego, Calif.) and expressed as a percent of the respective (IV or orally administered) vehicle control.
# [3] = test system: OVA sensitized mice, methacholine-induced bronchial hyper-reactivity; assay: GSNOR inhibition assay in an in vivo animal model: OVA mouse model of asthma, methacholine challenge, Penh by whole body plethysmograph; conditions: 1 mg/kg, 10 mg/kg or 30 mg/kg intravenously 24 hours prior
# Description: In an effort to determine if similar observations would manifest if GSNOR were inhibited pharmacologically by a GSNOR inhibitor, an OVA mouse model (i.e., the wild-type model of Que et al.) was used. In this study, OVA sensitized mice were administered 1 mg/kg, 10 mg/kg or 30 mg/kg of Compound 1 intravenously at 24 hours prior to being placed in a whole body plethysmograph (Buxco Research Systems, Wilmington, N.C.) and provided with fresh air.
# Subject animals were then challenged with an aerosol of increasing dosages of the bronchoconstrictive agent methacholine, a pharmacologic agent commonly used in determining the degree of bronchial hyper-reactivity in experimental subjects. In this study mice were exposed to an increasing concentration of methacholine, each dose being presented for 3 minutes, during which time readings were taken. Doses of methacholine were 0 mg/ml, 5 mg/ml, 20 mg/ml, and 50 mg/ml. The degree of bronchial hyper-reactivity was measured as the ‘Enhanced Pause’ (Penh), a unit-less index of airway hyper-reactivity (Dohi et al., Lab Invest. 79(12):1559-1571, 1999).
# [4] = test system: mouse model of ovalbumin (OVA)-induced asthma; assay: Experimental asthma model: methacholine (MCh)-induced bronchoconstriction/airway hyper-reactivity (Penh) in ovalbumin (OVA)-induced asthma; type: in vivo; conditions: single IV dose 0.1 mg/kg, 48 h prior to MCh, read-out: area under the curve (AUC) for Penh response as percent of vehicle control
# [5] = single IV dose 1 mg/kg, 24 h prior to MCh
# [6] = single oral dose 30 mg/kg, 24 h prior to MCh
# [7] = Mus musculus, 24 h prior to MCh, read-out: area under the curve (AUC) for Penh response as percent of vehicle control
SMILES,"reduction of eosinophil infiltration into the BALF [1, 5] [%]","reduction of eosinophil infiltration into the BALF [1, 6] [%]","response vs control in vivo at 1 mg/kg [2, 7] [%]","response vs control in vivo at 30 mg/kg [2, 7] [%]",efficacy against experimental asthma (attenuation of MCh induced bronchoconstriction and pulmonary inflammation) [2],efficacy against experimental asthma (attenuation of MCh induced bronchoconstriction) [2],other results
"COc1cc(Cl)ccc1-c1ccc(CCC(=O)O)n1-c1ccc(C(N)=O)cc1C [Compound 116, 3-(1-(4-carbamoyl-2-methylphenyl)-5-(4-chloro-2-methoxy-phenyl)-1H-pyrrol-2-yl)propanoic acid]",100,100,60.2 ± 7.9,26.7 ± 1.4,efficacious,–,"reduction of eosinophil infiltration into the BALF ([1]; single IV dose 0.1 mg/kg, 24 h prior to MCh): 79%; reduction of eosinophil infiltration into the BALF ([1]; single IV dose 10 mg/kg, 30 min. prior to MCh): 94%; reduction of eosinophil infiltration into the BALF ([1]; single IV dose 10 mg/kg, 24 h prior to MCh): 100%; response vs control in vivo at 10 mg/kg ([2]; Mus musculus, 0.5 h, 30 min. prior to MCh, read-out: area under the curve (AUC) for Penh response as percent of vehicle control): 35.2 ± 9.3%; response vs control in vivo at 0.1 mg/kg [2, 7]: 64.2 ± 7.6%; response vs control in vivo at 10 mg/kg [2, 7]: 40.7 ± 2.4%"
"Cc1cc(C(N)=O)ccc1-n1c(CCC(=O)O)ccc1-c1ccc(-n2ccnc2)cc1 [Compound 1, 3-(5-(4-(1H-imidazol-1-yl)phenyl)-1-(4-carbamoyl-2-methyl-phenyl)-1H-pyrrol-2-yl)propanoic acid]",–,–,–,–,–,efficacious,"broncho-constrictive responses (Penh) to methacholine challenge compared with vehicle-only dosed animals [3]: lower broncho-constrictive responses; response vs control in vivo at 0.1 mg/kg [4]: 64.4 ± 55%; reduction of eosinophil infiltration into the BALF ([1]; single IV dose 0.01 mg/kg, 24 h prior to MCh): 98%; ED50 ([2]; Mus musculus, iv, read-out: ED50, dose demonstrating 50% reduction in Penh response): 0.011 ± 0.003 mg/kg; response vs control in vivo at 0.01 mg/kg ([2]; Mus musculus, single IV dose 0.01 mg/kg, 24 h prior to MCh, read-out: area under the curve (AUC) for Penh response as percent of vehicle control): 42.1 ± 2.8%; response vs control in vivo at 0.1 mg/kg ([2]; Mus musculus, 1 h prior to MCh, read-out: area under the curve (AUC) for Penh response as percent of vehicle control): 76.4 ± 6.6%"
"COc1ccc(-c2ccc(CCC(=O)O)n2-c2ccc(C(N)=O)cc2C)cc1 [Compound 9, 3-(1-(4-carbamoyl-2-methylphenyl)-5-(4-methoxy-phenyl)-1H-pyrrol-2-yl)propanoic acid]",92,100,65.3 ± 5.9,24.6 ± 3,efficacious,–,–
"Cc1cc(C(N)=O)ccc1-n1c(CCC(=O)O)ccc1-c1ccc(-n2ccnc2C)cc1 [Compound 3, 3-(1-(4-carbamoyl-2-methyl-phenyl)-5-(4-(2-methyl-1H-imidazol-1-yl)phenyl)-1H-pyrrol-2-yl)propanoic acid]",46,–,71 ± 8.6,–,–,efficacious,–
"Cc1cc(C(N)=O)ccc1-n1c(CCC(=O)O)ccc1-c1ccc(Br)cc1 [Compound 12, 3-(5-(4-bromophenyl)-1-(4-carbamoyl-2-methylphenyl)-1H-pyrrol-2-yl)propanoic acid]",–,–,–,–,–,efficacious,–
"Cc1cc(NS(C)(=O)=O)ccc1-n1c(CCC(=O)O)ccc1-c1ccc(-n2ccnc2C)s1 [Compound 171, 3-(5-(5-(2-methyl-1H-imidazol-1-yl)thiophen-2-yl)-1-(2-methyl-4-(methyl-sulfonamido)-phenyl)-1H-pyrrol-2-yl)propanoic acid]",63,–,78.7 ± 8.1,–,–,efficacious,–
